From ChEMBL document CHEMBL1201862, “PubChem BioAssay data set” (2004)
Blank lines part the entries; values can stand above or below the compound they belong to. Calls of active or inactive are those of the source.

Key:
[1] = target: T1, Corticotropin-releasing factor receptor 2/Corticotropin-releasing factor-binding protein (Homo sapiens, UniProt P24387+Q13324); test: activators of CRF receptor 2 with binding protein – uHTS hits, confirmation (AID 602473); assay type: functional; conditions: read-out: EC50_Mean
T1 sequence (Q13324 whole entry): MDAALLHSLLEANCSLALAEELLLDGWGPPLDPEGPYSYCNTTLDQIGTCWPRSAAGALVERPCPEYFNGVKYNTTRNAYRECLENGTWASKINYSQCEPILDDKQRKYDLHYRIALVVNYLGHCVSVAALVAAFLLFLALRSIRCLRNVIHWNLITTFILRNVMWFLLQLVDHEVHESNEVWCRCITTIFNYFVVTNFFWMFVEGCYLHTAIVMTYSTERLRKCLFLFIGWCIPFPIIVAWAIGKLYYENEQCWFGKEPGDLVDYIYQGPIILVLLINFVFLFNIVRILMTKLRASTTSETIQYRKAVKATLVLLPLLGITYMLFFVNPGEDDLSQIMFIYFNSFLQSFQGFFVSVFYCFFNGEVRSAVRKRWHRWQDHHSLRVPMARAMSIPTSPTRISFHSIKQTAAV
T1 sequence (P24387 whole entry): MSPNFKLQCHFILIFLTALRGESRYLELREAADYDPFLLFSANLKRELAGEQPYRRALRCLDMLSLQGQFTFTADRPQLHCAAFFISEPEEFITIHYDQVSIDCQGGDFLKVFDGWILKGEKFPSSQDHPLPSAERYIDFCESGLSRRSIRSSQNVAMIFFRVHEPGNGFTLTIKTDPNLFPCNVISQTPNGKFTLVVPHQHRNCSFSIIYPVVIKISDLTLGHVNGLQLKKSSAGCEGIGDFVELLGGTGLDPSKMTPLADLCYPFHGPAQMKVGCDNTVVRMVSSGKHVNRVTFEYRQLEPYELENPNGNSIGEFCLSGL

[2] = target: T1, Corticotropin-releasing factor receptor 2/Corticotropin-releasing factor-binding protein; test: Dose Response confirmation of uHTS hits for small molecule antagonists of the CRF-binding protein and CRF-R2 receptor complex.; assay type: functional; conditions: read-out: IC50_Mean
[3] = CRF-BP/CRF-R2 complex antagonists, dose response, cell-based, uHTS hits, 384-well (AID 651639); assay type: functional, Homo sapiens; conditions: read-out: IC50_Mean
[4] = AlphaScreen signal interference compounds, dose response, artefact control for ARNT-TACC3 interaction inhibitor project, biochemical, luminescence, cherry-pick (AID 651705); assay type: functional;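 further: AlphaScreen bead proximity signal that flags compounds interfering with the detection technology; potency reflects signal decrease which marks the compound as an assay artifact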
A-375 = test: MITF: Counter assay: A375 proliferation Measured in Cell-Based System Using Plate Reader - 2084-03_Inhibitor_Dose_DryPowder_Activity. [Related pubchem assays (depositor defined):AID488944]; assay type: functional; conditions: Homo sapiens
Melanocortin receptor 4 = Melanocortin receptor 4 (Homo sapiens, UniProt P32245); assay type: functional, cell-based;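 further: Cell-based assay with luminescence read-out, confirmatory dose-response testing for agonist activity of biased ligands at MC4R; human U2OS cells with tagged receptor and beta-arrestin; potency of agonists that increase receptor coupling to beta-arrestin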
[5] = target: T2, Microphthalmia-associated transcription factor (Homo sapiens, UniProt O75030); test: TRPM1 promoter luciferase signal decrease, dose response, MITF inhibitor project, cell-based, SK-MEL-5, cherry-picked, set 3 (AID 493073); assay type: functional
T2 sequence (O75030 whole entry): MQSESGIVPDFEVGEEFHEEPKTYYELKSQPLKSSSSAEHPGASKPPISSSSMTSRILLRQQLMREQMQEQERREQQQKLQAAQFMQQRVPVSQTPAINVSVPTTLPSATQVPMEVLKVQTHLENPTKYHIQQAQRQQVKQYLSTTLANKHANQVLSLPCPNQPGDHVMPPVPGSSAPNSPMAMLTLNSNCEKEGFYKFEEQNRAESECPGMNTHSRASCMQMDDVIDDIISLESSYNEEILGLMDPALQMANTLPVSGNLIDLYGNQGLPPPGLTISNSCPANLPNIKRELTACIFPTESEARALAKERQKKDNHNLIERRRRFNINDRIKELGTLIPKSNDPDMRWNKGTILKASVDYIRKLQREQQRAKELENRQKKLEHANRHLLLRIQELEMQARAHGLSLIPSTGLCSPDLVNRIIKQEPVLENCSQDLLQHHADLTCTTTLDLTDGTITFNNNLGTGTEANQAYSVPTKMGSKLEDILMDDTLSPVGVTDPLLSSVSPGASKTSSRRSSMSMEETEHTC

[6] = target: T3, Ubiquitin-conjugating enzyme E2 N (Homo sapiens, UniProt P61088); assay type: functional;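 further: Dose-response confirmation in a TR-FRET assay detecting UBC13-driven polyubiquitin chain formation, inhibition measured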
T3 sequence (P61088 whole entry): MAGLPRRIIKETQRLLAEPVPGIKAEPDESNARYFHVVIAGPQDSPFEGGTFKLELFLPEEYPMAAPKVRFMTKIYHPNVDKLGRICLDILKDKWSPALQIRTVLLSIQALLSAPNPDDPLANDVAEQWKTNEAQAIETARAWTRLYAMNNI

[7] = inhibitors of intracellular T. cruzi replication, confirmation, NIH3T3 host cells, beta-gal luminescence (AID 2044); assay type: functional, cell-based;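 further: intracellular parasites grown in NIH/3T3 mouse fibroblasts as host cells; luminescent beta-galactosidase reporter signal from transgenic T. cruzi replicating inside host cells; inhibitors lower the luminescence signal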
[8] = target: T4, DNA repair and recombination protein RAD54-like (Homo sapiens, UniProt Q92698); test: inhibitors of human RAD54 branch migration, confirmation, biochemical, fluorescence, cherry-picked samples, dose series (AID 651657); assay type: functional
T4 sequence (Q92698 whole entry): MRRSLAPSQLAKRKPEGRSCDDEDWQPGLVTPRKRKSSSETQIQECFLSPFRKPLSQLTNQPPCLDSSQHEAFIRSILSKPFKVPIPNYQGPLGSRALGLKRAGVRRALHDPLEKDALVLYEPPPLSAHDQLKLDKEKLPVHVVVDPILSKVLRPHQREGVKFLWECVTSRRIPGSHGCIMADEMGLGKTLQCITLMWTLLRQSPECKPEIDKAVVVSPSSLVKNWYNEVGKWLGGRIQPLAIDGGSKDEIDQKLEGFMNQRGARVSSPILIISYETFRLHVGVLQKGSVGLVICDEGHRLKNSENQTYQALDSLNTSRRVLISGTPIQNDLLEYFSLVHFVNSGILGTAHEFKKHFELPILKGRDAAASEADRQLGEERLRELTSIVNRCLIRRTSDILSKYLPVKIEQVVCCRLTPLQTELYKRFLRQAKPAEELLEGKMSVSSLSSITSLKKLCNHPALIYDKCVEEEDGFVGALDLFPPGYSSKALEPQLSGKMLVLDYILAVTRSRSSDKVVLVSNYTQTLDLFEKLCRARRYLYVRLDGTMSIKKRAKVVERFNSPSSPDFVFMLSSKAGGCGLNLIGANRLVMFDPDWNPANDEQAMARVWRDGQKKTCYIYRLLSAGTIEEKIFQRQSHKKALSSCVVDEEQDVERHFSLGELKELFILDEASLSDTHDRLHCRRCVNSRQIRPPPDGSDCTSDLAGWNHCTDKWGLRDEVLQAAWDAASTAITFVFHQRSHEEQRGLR

[9] = target: T5, DNA repair protein RAD52 homolog (Homo sapiens, UniProt P43351); assay type: functional, biochemical
T5 sequence (P43351 whole entry): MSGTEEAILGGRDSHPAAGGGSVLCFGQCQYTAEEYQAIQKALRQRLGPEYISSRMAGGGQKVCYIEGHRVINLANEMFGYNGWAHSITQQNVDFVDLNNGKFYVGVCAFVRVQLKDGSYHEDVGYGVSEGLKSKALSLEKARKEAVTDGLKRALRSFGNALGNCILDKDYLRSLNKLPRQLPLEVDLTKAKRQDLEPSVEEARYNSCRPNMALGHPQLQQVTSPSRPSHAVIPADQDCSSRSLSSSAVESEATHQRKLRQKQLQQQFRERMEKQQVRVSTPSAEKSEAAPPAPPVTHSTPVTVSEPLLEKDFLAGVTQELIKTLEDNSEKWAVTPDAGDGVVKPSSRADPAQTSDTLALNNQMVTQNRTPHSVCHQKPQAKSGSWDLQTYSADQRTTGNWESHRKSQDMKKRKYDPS

[10] = MDA-MB-231 cell growth inhibition, dose response, cytotoxicity control for RAD54 inhibitor project, CellTiter-Glo luminescence, cherry-pick (AID 651692); assay type: functional, cell-based
[11] = cytotoxicity toward NIH3T3 fibroblasts, dose response, counter-screen, cell-based, ATP luminescence, mouse fibroblasts (AID 2010); assay type: functional;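 further: cells exposed to compound for about 90 hours before reading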
Cytochrome P450 3A4 = Cytochrome P450 3A4 (Homo sapiens, UniProt P08684); conditions: Potency;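 further: confirmatory qHTS run detecting inhibitors and substrates of CYP3A4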
[12] = target: Tyrosine-protein phosphatase non-receptor type 5 (Homo sapiens, UniProt P54829); test: STEP phosphatase inhibitors, confirmation, biochemical, fluorescence intensity, uHTS hits (AID 602372); assay type: functional; conditions: read-out: IC50_Mean
[13] = target: Dual specificity protein phosphatase 3 (Homo sapiens, UniProt P51452); test: VHR phosphatase inhibition, dose response, selectivity assay for STEP inhibitor project, biochemical (AID 602374); assay type: functional; conditions: read-out: IC50_Mean
Cytochrome P450 2D6 = Cytochrome P450 2D6 (Homo sapiens, UniProt P10635);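 further: CYP2D6 member of a cytochrome P450 panel assay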
[14] = target: Tyrosine-protein phosphatase non-receptor type 11 (Homo sapiens, UniProt Q06124); test: SHP2 phosphatase inhibition, dose response, selectivity assay for STEP inhibitor project, biochemical (AID 602367); assay type: functional; conditions: read-out: IC50_Mean
[15] = target: T6, Sentrin-specific protease 1 (Homo sapiens, UniProt Q9P0U3); test: potency of human SENP1 inhibitors, dose response, biochemical, kinetic FRET (AID 651697); assay type: functional; conditions: read-out: IC50_Mean
T6 sequence (Q9P0U3 whole entry): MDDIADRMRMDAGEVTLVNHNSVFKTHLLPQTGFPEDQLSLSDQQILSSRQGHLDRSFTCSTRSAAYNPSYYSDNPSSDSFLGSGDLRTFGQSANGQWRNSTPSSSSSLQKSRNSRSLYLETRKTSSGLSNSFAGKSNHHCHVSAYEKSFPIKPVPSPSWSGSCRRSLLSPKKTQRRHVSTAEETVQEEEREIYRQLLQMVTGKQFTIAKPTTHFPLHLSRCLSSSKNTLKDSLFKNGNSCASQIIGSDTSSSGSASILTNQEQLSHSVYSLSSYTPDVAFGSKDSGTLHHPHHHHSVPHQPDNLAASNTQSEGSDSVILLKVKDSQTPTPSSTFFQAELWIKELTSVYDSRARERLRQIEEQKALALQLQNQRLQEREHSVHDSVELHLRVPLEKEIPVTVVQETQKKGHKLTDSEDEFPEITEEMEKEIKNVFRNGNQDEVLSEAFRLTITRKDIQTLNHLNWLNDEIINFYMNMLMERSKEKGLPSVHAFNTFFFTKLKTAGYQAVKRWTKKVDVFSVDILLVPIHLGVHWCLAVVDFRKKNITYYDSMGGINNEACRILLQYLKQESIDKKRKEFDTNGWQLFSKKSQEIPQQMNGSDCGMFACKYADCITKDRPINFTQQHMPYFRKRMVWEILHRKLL

[16] = target: T6, Sentrin-specific protease 1; test: Dose response confirmation of small molecule inhibitors of the catalytic domain of the SUMO protease, SENP1 in a FRET assay.; assay type: functional; conditions: read-out: IC50_Mean
[17] = target: Ras and Rab interactor 1/Tyrosine-protein kinase ABL1 (Homo sapiens, UniProt P00519+Q13671); assay type: functional;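 further: biochemical TR-FRET dose-response test measuring inhibition of binding between Rin1 and Abl proteins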
[18] = target: T7, Sentrin-specific protease 8 (Homo sapiens, UniProt Q96LD8); assay type: functional
T7 sequence (Q96LD8 whole entry): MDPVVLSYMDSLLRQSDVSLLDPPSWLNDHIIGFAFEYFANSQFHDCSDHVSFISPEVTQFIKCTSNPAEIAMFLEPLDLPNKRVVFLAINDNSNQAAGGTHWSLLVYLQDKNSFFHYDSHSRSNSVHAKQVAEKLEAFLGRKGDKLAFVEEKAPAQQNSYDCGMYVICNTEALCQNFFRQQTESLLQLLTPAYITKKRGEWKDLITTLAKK

[19] = target: T7, Sentrin-specific protease 8; assay type: functional; remark: listed apart in the source

Ras and Rab interactor 1/Tyrosine-protein kinase ABL1, sequence (P00519 whole entry): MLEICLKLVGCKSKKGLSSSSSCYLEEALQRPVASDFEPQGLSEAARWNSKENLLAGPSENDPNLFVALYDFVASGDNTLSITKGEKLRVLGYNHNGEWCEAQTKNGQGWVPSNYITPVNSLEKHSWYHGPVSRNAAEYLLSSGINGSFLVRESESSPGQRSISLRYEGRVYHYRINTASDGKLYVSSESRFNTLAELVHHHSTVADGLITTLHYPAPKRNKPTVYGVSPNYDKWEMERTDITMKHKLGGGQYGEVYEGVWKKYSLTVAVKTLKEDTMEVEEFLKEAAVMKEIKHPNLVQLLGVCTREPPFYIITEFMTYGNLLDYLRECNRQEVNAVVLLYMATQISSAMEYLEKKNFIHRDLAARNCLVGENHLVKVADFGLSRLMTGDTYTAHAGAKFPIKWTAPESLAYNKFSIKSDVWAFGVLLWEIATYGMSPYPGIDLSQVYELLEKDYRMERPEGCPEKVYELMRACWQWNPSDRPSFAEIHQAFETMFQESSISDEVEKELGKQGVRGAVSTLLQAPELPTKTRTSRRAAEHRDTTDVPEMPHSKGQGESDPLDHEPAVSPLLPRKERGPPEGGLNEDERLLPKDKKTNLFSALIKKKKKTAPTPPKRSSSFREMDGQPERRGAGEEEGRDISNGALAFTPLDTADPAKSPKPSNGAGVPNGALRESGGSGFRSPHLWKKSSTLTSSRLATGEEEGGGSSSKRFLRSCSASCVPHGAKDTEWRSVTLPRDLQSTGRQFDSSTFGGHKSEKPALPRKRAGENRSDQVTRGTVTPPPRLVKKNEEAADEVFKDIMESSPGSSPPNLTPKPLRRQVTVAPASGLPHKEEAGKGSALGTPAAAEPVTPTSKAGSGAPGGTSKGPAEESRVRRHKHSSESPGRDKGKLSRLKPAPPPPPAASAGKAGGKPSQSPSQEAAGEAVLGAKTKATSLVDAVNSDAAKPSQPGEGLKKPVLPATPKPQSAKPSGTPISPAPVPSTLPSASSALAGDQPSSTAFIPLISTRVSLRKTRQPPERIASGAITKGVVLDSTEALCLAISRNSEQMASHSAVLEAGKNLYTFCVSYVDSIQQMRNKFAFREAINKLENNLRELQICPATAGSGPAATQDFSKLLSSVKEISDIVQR
Ras and Rab interactor 1/Tyrosine-protein kinase ABL1, sequence (Q13671 whole entry): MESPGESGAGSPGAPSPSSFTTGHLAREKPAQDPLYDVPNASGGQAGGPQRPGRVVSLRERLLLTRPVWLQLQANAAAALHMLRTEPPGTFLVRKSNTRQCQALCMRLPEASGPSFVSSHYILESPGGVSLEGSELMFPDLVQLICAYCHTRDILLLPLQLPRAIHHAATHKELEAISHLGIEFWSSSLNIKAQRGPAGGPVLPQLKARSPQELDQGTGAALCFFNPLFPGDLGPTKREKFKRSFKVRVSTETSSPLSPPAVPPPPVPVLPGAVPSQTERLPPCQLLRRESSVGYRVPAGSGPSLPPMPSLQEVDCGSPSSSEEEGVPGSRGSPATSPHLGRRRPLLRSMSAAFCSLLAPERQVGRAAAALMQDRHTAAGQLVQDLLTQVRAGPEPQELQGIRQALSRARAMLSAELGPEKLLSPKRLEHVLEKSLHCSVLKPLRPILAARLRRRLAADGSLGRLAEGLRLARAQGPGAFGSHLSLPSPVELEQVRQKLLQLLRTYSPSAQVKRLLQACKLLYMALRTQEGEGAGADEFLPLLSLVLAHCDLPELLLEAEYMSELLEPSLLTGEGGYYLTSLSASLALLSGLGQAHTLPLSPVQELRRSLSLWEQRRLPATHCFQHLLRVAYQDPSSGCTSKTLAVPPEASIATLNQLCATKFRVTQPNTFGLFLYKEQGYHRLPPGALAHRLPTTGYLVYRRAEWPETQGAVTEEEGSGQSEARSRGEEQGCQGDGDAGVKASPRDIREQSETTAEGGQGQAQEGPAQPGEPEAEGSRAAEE
Melanocortin receptor 4, sequence (P32245 whole entry): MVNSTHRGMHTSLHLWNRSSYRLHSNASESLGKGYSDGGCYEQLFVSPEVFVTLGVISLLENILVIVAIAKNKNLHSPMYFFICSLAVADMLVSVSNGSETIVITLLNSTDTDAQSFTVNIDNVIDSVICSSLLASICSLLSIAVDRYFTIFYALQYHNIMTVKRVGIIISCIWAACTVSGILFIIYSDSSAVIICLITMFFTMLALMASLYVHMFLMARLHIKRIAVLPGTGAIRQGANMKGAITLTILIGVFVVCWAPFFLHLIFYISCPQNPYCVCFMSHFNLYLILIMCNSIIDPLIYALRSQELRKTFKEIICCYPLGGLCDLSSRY
Tyrosine-protein phosphatase non-receptor type 5, sequence (P54829 whole entry): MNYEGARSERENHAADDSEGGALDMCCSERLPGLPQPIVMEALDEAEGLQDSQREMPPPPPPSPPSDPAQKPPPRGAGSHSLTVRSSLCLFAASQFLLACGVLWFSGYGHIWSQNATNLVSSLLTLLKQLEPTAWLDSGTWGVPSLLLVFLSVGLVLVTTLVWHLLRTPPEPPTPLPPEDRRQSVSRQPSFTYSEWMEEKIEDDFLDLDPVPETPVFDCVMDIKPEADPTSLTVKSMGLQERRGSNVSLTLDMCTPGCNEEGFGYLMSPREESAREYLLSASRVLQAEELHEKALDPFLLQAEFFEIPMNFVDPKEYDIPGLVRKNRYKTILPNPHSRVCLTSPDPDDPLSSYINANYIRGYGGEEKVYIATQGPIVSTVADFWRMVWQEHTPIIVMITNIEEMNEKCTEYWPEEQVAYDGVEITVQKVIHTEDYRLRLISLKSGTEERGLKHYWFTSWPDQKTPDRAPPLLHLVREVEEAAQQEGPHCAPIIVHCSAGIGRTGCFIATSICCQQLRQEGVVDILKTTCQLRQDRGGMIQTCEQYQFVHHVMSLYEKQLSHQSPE
Cytochrome P450 2D6, sequence (P10635 whole entry): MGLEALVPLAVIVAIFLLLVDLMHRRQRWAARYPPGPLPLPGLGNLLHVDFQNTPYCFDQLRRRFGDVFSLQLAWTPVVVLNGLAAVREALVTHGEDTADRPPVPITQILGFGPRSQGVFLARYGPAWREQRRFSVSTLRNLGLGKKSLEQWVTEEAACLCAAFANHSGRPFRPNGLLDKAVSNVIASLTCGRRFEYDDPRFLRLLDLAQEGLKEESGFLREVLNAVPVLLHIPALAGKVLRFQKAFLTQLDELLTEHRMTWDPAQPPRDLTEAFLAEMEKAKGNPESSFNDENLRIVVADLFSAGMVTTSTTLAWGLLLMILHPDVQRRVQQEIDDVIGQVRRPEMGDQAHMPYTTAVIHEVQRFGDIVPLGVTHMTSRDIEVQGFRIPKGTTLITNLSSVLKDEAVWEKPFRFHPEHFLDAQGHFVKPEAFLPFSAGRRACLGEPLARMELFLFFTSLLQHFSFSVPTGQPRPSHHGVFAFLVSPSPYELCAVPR
Cytochrome P450 3A4, sequence (P08684 whole entry): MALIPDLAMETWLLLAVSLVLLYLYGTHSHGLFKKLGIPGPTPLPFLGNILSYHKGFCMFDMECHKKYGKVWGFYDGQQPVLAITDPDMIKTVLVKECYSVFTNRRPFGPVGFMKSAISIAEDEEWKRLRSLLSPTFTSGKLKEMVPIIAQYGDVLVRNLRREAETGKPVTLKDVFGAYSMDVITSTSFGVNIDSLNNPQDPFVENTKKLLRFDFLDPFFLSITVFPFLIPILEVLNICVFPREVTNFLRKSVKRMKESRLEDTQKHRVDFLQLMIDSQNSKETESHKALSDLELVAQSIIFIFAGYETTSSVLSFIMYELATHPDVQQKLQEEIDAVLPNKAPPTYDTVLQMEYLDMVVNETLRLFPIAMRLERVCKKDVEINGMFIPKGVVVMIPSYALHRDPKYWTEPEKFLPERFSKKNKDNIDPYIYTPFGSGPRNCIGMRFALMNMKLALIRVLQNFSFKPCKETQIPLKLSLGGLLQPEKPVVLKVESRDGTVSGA
Dual specificity protein phosphatase 3, sequence (P51452 whole entry): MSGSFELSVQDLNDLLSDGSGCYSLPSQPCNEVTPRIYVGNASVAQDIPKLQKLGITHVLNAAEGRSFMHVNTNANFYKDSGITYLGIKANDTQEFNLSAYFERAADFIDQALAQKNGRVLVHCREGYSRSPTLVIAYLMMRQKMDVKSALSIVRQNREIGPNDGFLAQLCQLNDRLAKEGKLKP

SMILES: NNc1ccc(S(=O)(=O)N2CCCCC2)cn1
AC50 [4]: 87.7 µM (active)

SMILES: CCCCCCCNC(=O)C1(CC2CC(c3ccc(Cl)cc3)=NO2)CCNCC1 (centres undefined)
AC50 (A-375): 19.9 µM (active)
EC50 (Melanocortin receptor 4): > 89.2 µM (inactive)
AC50 [5]: 14 µM (active)
IC50 [6]: > 20 µM (inactive)

SMILES: CCN(CC)CCCN(C(=O)c1ccco1)c1nc(-c2ccc(Cl)cc2)cs1
EC50 [7]: 0.87 µM (active)
AC50 [8]: 45.1 µM (active)
AC50 [9]: 19.2 µM (active)
AC50 [10]: 22.9 µM (active)
EC50 [11]: 9.32 µM (active)

SMILES: Cc1nnc(NC(=O)c2ccc(S(=O)(=O)N3CC(C)OC(C)C3)cc2)o1 (centres undefined)
AC50 [4]: 122 µM (active)

SMILES: Oc1cc(Cl)c(Cl)c(Cl)c1
EC50 [1]: > 53 µM (inactive)
IC50 [2]: 9.09 µM (active)
IC50 [3]: > 20 µM (inactive)
AC50 (Cytochrome P450 3A4): 12.6 µM (inconclusive)

SMILES: Cc1c(N2C(=O)/C(=C/c3ccc(N(C)C)cc3)N(C)C2=S)c(=O)n(-c2ccccc2)n1C
IC50 [15]: 19.5 µM (active)
IC50 [16]: 36.2 µM (inactive)

SMILES: COc1ccc(Cl)cc1NC(=O)CN(C)C(=O)c1cc(-c2ccncc2)nc2ccccc12
IC50 [17]: 1.86 µM (active)

SMILES: COc1ccc(C(=O)N2C=Cc3ccccc3C2C#N)cc1 (centres undefined)
IC50 [18]: 5.74 µM (active)
IC50 [19]: > 100 µM (inactive)

Next, values leading:

EC50 [1]: > 53 µM (inactive)
IC50 [2]: 5.91 µM (active)
IC50 [3]: > 20 µM (inactive)
SMILES: Cc1ccc(N(C(=O)c2nsc(Cl)c2Cl)C(C(=O)NC2CCCC2)c2ccc(O)cc2)cc1C (centres undefined)

IC50 [12]: 20.1 µM (inactive)
IC50 [13]: 1.3 µM (active)
AC50 (Cytochrome P450 2D6): 0.0224 µM (inconclusive)
IC50 [14]: 3.34 µM (active)
SMILES: OCCN1CCN(C(=S)c2ccc(Br)cc2)CC1

EC50 (Melanocortin receptor 4): > 89.2 µM (inactive)
SMILES: COc1cccc(-c2cnc3c(NC=O)cc(-c4ccoc4)cn23)c1

IC50 [17]: 16.5 µM (inactive)
SMILES: O=C(Cc1ccc(NC(=O)C2CCN(C(=O)C3CCC3)CC2)cc1)Nc1ccc(C(=O)N2CCOCC2)cc1
